According to US7709002B1, “Mutated ras peptides for generation of CD8+Cytotoxic T lymphocytes” (The United States of America as represented by the …, priority 1996, dated 2010):
Like-named read-outs stand apart in the source and are kept apart here. Where no end group is shown, it is not given here.

Legend:
[1] = test system: C1R-A2 cell line as target of CD8+ CTL line of RAS patient 32; test: 51Cr-release cytotoxicity of CD8+ CTL line of RAS patient 32 against peptide-pulsed C1R-A2 targets; assay type: cell-based, human; settings: for % Specific Lysis: E/T 20/1, 6 hr
Source text: (§1) IVS cycles for evaluation of CD8^+ T cell responses from HLA-A2+Patients. Freshly-thawed PBMC (from ras patients 32 and 33), derived pre-vaccination and post-third vaccination, were enriched in T lymphocytes by passage over nylon wool columns (Robbins Scientific, Sunnyvale, Calif.) and then depleted of CD4^+ T cells by negative selection via panning on anti-CD4 MAb-coated T25 flasks (Applied Immune Sciences, Santa Clara, Calif.). For the first IVS cycle, CD8^+ enriched lymphocytes (5×10^5/well) were cultured in 24-well plates with irradiated, autologous PBMC (5×10^6/well) as APC which had been preincubated for 3 hours with the appropriate mutant ras peptide ([…]) plus human β2-microglobulin (10 μg/ml) (Calbiochem, San Diego, Calif.). […] IL-2 (10 U/ml) was added 3 days later. After an additional 7 days, viable cells (2-5×10^5/well) were re-cultured by weekly stimulation with APC pre-pulsed with peptide/β2-microglobulin, and IL-2 added one day later. After the third or fourth IVS cycle, autologous PBMC were replaced with EBV-transformed, autologous BLCL (5×10^5/well) as APC. […] CTL activity was evaluated from cultures 5 to 6 days after Ag restimulation.
(§2) Cytotoxic response. Cytotoxicity was examined by a conventional ^51Cr-release assay, as described (6). Briefly, target cells (i.e. T2, C1R-A2, BLCL, K562) were radiolabeled with 200 μCi of Na2[^51Cr]04 (Amersham) for 60 minutes at 37° C., followed by thorough washing to remove unincorporated isotope. Effectors and targets (1×10^4/well) were incubated in 96-well, U-bottomed plates (Costar) at various effector target (E/T) ratios in the absence and presence of peptide (+/−monoclonal antibody (MAb) directed against CD4, CD8 or HLA-A2 molecules (clone BB7.2 from ATCC)) for up to 6 hours. After incubation, supernatants were collected using a Supernatant Collection System (Skatron, Sterling, Va.) and radioactivity measured in a γ-counter (Packard Instruments, Downers Grove, Ill.). Cytotoxic activity was defined as percent specific release of ^51Cr and determined by the equation: [(experimentalcpm−spontaneouscpm)/maximumcpm−spontaneouscpm)]×100. Results were expressed as the mean±SEM of triplicate cultures. The C1R-A2 line is a BLCL transfected with the HLA-A2 gene (obtained from Dr. P. Creswell, Yale University) (Storkus et al, 1987 J. Immunol. 138:1657-1659), and K562 is an erythroleukemia cell line (ATCC, Rockville, Md.) used to measure NK activity.

[2] = test system: T2 cell line as target of CD8+ CTL line of RAS patient 32; test: 51Cr-release cytotoxicity of CD8+ CTL line of RAS patient 32 against peptide-pulsed T2 targets; assay type: cell-based, human; settings: peptide 10 μg/ml, IVS cycle 7 (FIG. 5)
Protocol: FIG. 5. Cytolytic activity by CD8^+ CTL line of RAS patient 32 is peptide-specific. The CD8^+ CTL line of RAS patient 32 (see FIG. 3) was assayed against the T2 cell line as a target, incubated with and without different ras peptides (10 μg/ml), as shown. In parallel, the extent of NK activity was evaluated against K562 cells. Cytotoxicity was determined by ^51Cr-release, and the results expressed at different E/T ratios following IVS cycle 7. Similar results were observed using the second, independently-derived CD8^+ CTL line as described in Table 6.
as §1
as §2, with “The C1R-A2 line is a BLCL transfected with the HLA-A2 gene (obtained from Dr. P. Creswell, Yale University) (Storkus et al, 1987 J. Immunol. 138:1657-1659), and K562 is an erythroleukemia cell line (ATCC, Rockville, Md.) used to measure NK activity.” left out

human HLA-A2 = target: T1, human HLA-A2 (Homo sapiens, UniProt P04439, D140Y/D185E/D98H/E176V/E277Q/G131W/G231S/I119V/I121R/I166T/I218V/L300P/L318F/N151K/N90K/P208A/P217A/Q86G/Q94H/R138H/R169H/T345S); test: HLA-A2 binding bioassay on T2 cells (flow cytometry); settings: for Immunostaining of T2 cells with Isotype control MAb: no peptide = 84.0
T1 construct: The 174CEM.T2 cell line (“T2”), (transport deletion mutant); endogenous in cells; host or cells: 174CEM.T2 (T2) human cell line

[3] = test system: SW480 colon carcinoma cell line (HLA-A2+, rasVal12+); test: 51Cr-release cytotoxicity of CTL against SW480 colon carcinoma cells; assay type: cell-based, human; settings: IFN-γ 250 U/ml for 24 hr; no lysis without pretreatment (FIG. 10A)
Protocol: (§3) FIGS. 10A and 10B. Anti-ras Val12-specific CTL from patient 29 lyse SW480 tumor targets in the absence of exogenous peptide. FIG. 10A: Anti-ras Val12-specific CD8^+ CTL from patient 29 were assayed against the SW480 colon carcinoma cell line (HLA-A2^+, rasVal12+) in the absence of exogenous peptide, with or without IFN-γ pretreatment (250 U/ml for 24 hr) of the target cells. CD8^+ CTL reactive with the […] peptide were used as an irrelevant effector cell population. Cytotoxicity was determined by ^51Cr-release, and the results expressed at different effector/target ratios. FIG. 10B: In parallel to 10A, anti-ras or anti-MART-1-specific CTL were assayed against SW480 (±IFN-γ pretreatment) at an effector/target ratio of 10/1 in the absence or presence of exogenous peptide (5 μg/ml). […] Flow cytometric analysis of SW480 cells for expression of HLA-A2: untreated=65.4% with MFI of 29.8; IFN-γ-pretreated=99.5% with MFI of 349.6. Flow cytometric analysis of SW480 cells for expression of ICAM-1: untreated=16.0% with MFI of 30.3; IFN-γ-pretreated=98.6% with MFI of 181.9.
(§4) Cytotoxic response. Cytotoxicity was examined by a conventional ^51Cr-release assay, as described (6). […] After incubation, supernatants were collected using a Supernatant Collection System (Skatron, Sterling, Va.) and radioactivity measured in a γ-counter (Packard Instruments, Downers Grove, Ill.). Cytotoxic activity was defined as percent specific release of ^51Cr and determined by the equation: [(experimentalcpm−spontaneouscpm)/maximumcpm−spontaneouscpm)]×100. Results were expressed as the mean±SEM of triplicate cultures. […]
Studies were also carried out to determine whether such peptide-induced CD8^+ CTL could recognize a processed form of the corresponding mutant ras protein. […] In contrast to the CD4^+ analysis, which measured lymphoproliferation to soluble protein, the CD8^+ CTL analysis reflected lytic ability against SW480 cells harboring the naturally-occurring mutation in the absence of exogenously added peptide. […]

SW480 cells = test: Flow cytometric analysis of SW480 cells for HLA-A2 and ICAM-1 after IFN-γ pretreatment; assay type: cell-based, human
Protocol: as §3
Isolation and preparation of peripheral blood mononuclear cells (PBMC). PBMC were isolated from 50 ml of heparinized whole blood by Ficoll-Hypaque density gradient centrifugation (Lymphocyte Separation Medium; Organon-Teknika, Durham, N.C.) prior to the first vaccination and four weeks after each vaccination. After isolation at each interval, PBMC were cryopreserved under liquid nitrogen in a sterile cocktail of 90% heat-inactivated, pooled human AB serum (Valley Biomedical, Winchester, Va.) and 10% dimethyl sulfoxide (DMSO) (Sigma Chemical Co., St. Louis, Mo.). Basic cellular immune responses to mitogens and antigens were first determined using freshly-thawed, unfractionated PBMC, derived pre-vaccination and post-third vaccination. For all functional assays and cell culture preparation, PBMC were suspended in a RPMI-1640 based-medium, supplemented with 15 mM HEPES buffer (pH 7.4), 2 mM L-glutamine, 0.1 mM non-essential amino acids, 1 mM sodium pyruvate, 50 μM β-mercaptoethanol, 50 μg/ml gentamicin (all from GIBCO/BRL, Gaithersburg, Md.) and 10% heat-inactivated human AB serum (Valley Biomedical). Cell surface phenotype of resting and activated lymphocyte cultures was analyzed by direct immunofluorescence. Cells were treated with the appropriate primary monoclonal antibody (MAb) conjugated to fluorescein isothiocyanate (FITC) (from Pharmingen, San Diego, Calif. or Becton Dickinson, Mountain View, Calif.), fixed with 1% paraformaldehyde and evaluated by flow cytometry using a FACScan (Becton Dickinson) for the percentage of positive cells and mean fluorescent intensity (MFI).

[4] = test system: peptide-pulsed autologous EBV-B cells; assay type: cell-based, human
Protocol: as §2

[5] = test system: C1R-A2 targets / autologous EBV-B cells as targets of CD8+ CTL line of patient 29; test: 51Cr-release cytotoxicity of CD8+ CTL line of patient 29 against C1R-A2 or autologous EBV-B targets; assay type: cell-based, human; settings: autologous EBV-B targets, IVS cycle 11, effector/target ratio 10/1 (FIG. 9B)
Protocol: FIGS. 9A and 9B. Production of a peptide-specific CD8^+ T cell line from post-vaccinated lymphocytes of patient 29. FIG. 9A: A CD8^+ CTL line was established from post-vaccinated PBMC of patient 29 and assayed for peptide specificity against C1R-A2 targets. Cytotoxicity was determined by ^51Cr-release, and the results expressed at different effector/target ratios following IVS cycle 7. FIG. 9B: Using this CD8^+ CTL line, the requirement for HLA-A2 in peptide presentation (by autologous EBV-B cells as targets) was determined in blocking experiments using MAb (clone BB7.2; ascites=1:30 dilution) directed against that molecule (or using an isotype-matched MAb). […] CD4 and CD8 MAbs were as described for FIGS. 8A and 8b. Control lysis in the absence of peptide or in the presence of ras5-14(Gly12) was <3%.
as §4

[6] = Post-Immune CD8+ culture, IVS cycle 6, 10-mer peptide 10 μg/ml
[7] = Post-Immune CD8+ culture, IVS cycle 7, 10-mer peptide 10 μg/ml
[8] = Post-Immune CD8+ culture, IVS cycle 8, 10-mer peptide 10 μg/ml
[9] = Post-Immune CD8+ culture, IVS cycle 9, 10-mer peptide 10 μg/ml
[10] = Pre-Immune CD8+ culture, IVS cycle 6, 10-mer peptide 10 μg/ml
[11] = Pre-Immune CD8+ culture, IVS cycle 7, 10-mer peptide 10 μg/ml
[12] = peptide 50 μg/ml + β2-microglobulin 3 μg/ml, overnight 37° C., serum-free

## Lys-Leu-Val-Val-Val-Gly-Ala-Asp-Gly-Val [ras5-14(Asp12)]
[1]; [6]
  % Specific Lysis: 24 ± 2%
[1]; [7]
  % Specific Lysis: 26 ± 2%
[1]; [8]
  % Specific Lysis: 67 ± 2%
[1]; [9]
  % Specific Lysis: 68 ± 4%
[1]; [10]
  % Specific Lysis: 14 ± 0%
[1]; [11]
  % Specific Lysis: 0%
[2]
  Sensitization of T2 targets for lysis (in words): sensitized the T2 cell line for lysis

## CEA571-579: 9 amino acid peptide, HLA-A2-restricted CEA-specific CD8+ CTL epitope, positive control for HLA-A2 binding (CGIQNSVSA; UniProt P06731 571-579, looked up, fragment)
Human HLA-A2; [12]
  Immunostaining of T2 cells with Isotype control MAb: 48.4 MFI
Human HLA-A2; peptide 50 μg/ml + β2-microglobulin 3 μg/ml, overnight 37° C., serum-free, no peptide = 137.9
  Immunostaining of T2 cells with MAb against HLA-A2: 679.5 MFI
Human HLA-A2; peptide 50 μg/ml + β2-microglobulin 3 μg/ml, overnight 37° C., serum-free, no peptide = 230.4
  Immunostaining of T2 cells with Pan Class I MAb (W6/32): 991.2 MFI

## IFN-γ: interferon gamma used to pretreat SW480 target cells
[3]
  Lysis of SW480 by anti-rasVal12 CTL after pretreatment of targets, no exogenous peptide: demonstrable cytotoxicity was observed at multiple effector/target ratios
SW480 cells; IFN-γ-pretreated (250 U/ml, 24 hr), untreated 65.4%
  SW480 cells positive for HLA-A2: 99.5%
SW480 cells; IFN-γ-pretreated, untreated 16.0%
  SW480 cells positive for ICAM-1: 98.6%
SW480 cells; IFN-γ-pretreated, untreated 29.8
  HLA-A2 expression on SW480: 349.6 MFI
SW480 cells; IFN-γ-pretreated, untreated 30.3
  ICAM-1 expression on SW480: 181.9 MFI

## YLVVVGADGV [Tyr variant]
[1]; anti-ras5-14(Asp12) CTL line, E/T 10/1 (FIG. 11)
  Shift in dose-response of target sensitization for lysis vs native peptide, based on half-maximal activity: three-fold
Human HLA-A2; less dependency for exogenous β2-macroglobulin
  Binding activity to HLA-A2 on T2 cells relative to native ras5-14(Asp12) sequence: higher binding activity than did the native peptide sequence

## CC(C)C[C@H](NC(=O)[C@@H](N)CCCCN)C(=O)N[C@H](C(=O)N[C@H](C(=O)N[C@H](C(=O)NCC(=O)N[C@@H](C)C(=O)N[C@H](C(=O)NCC(=O)N[C@H](C(=O)NCC(=O)N[C@@H](CCCCN)C(=O)N[C@@H](CO)C(=O)O)C(C)C)C(C)C)C(C)C)C(C)C)C(C)C [ras5-17(Val12)]
[4]; CD4+ T cell line of patient 29
  Specific cytotoxic response of CD4+ T cell line: did not display specific cytotoxicity

## ras5-14(Gly12): wild-type ras 10-mer peptide positions 5-14 with Gly at position 12 (KLVVVGAGGV)
[1]; IVS cycle 16, effector/target ratio 10/1 (FIG. 7)
  Control lysis: < 3%
[1]; [6]
  % Specific Lysis: 8 ± 0%
[1]; [7]
  % Specific Lysis: 8 ± 1%
[1]; [8]
  % Specific Lysis: 10 ± 1%
[1]; [9]
  % Specific Lysis: 21 ± 2%
[1]; [10]
  % Specific Lysis: 10 ± 1%
[1]; [11]
  % Specific Lysis: 0%
[2]
  Sensitization of T2 targets for lysis (in words): failed to stimulate lysis
[5]
  Control lysis: < 3%
Human HLA-A2; [12]
  Immunostaining of T2 cells with Isotype control MAb: 41.3 MFI

## CC(C)C[C@H](NC(=O)[C@@H](N)CCCCN)C(=O)N[C@H](C(=O)N[C@H](C(=O)N[C@H](C(=O)NCC(=O)N[C@@H](C)C(=O)N[C@@H](CS)C(=O)NCC(=O)N[C@H](C(=O)NCC(=O)N[C@@H](CCCCN)C(=O)N[C@@H](CO)C(=O)O)C(C)C)C(C)C)C(C)C)C(C)C [ras5-17(Cys12)]
[4]; CD4+ T cell line of patient 43
  Specific cytotoxic response of CD4+ T cell line: no specific cytotoxic response was detected
